Reference: patent US10640499B2 (Gilead Sciences, Inc., priority 2016, dated 2020)

Legend:
Assay type in all cases: cell-based
TNFα = assay: Cytokine profiling assay in human PBMCs, TNFα detection (MSD); settings: PBMC; cryopreserved human PBMCs, 24 hours at 37° C.; concentration at half-maximal effect, normalized percent activation; read-out: TNFa AC50
Description: (§1) Cryopreserved human PBMCs isolated from healthy donors were purchased from StemCell Technologies (Vancouver, Canada). Cell culture medium used was RPMI with L-Glutamine (Mediatech, Manassas, Va.) supplemented with 10% fetal bovine serum (Hyclone, GE Healthcare, Logan, Utah) and Penicillin-Streptomycin (Mediatech). Human TNFα, IL12p40, and IFNα2a 384-well Assay capture plates, standards, buffers and processing reagents were obtained from MesoScale Discovery Technologies (MSD; Rockville, Md.).
(§2) Cryopreserved human PBMCs (1×10e8 cells/ml) were thawed at 37° C. and resuspended in 25 mL warm cell culture medium. The cells were pelleted at 200×g (Beckman Avanti J-E) for 5 min and resuspended in 20 mL of fresh culture media. Cells were counted using a Cellometer (Nexcelcom Bioscience), adjusted to 2×10e6 cells, and incubated for 2 hours in an incubator set at 37° C., 5% CO2 to recover from cryopreservation. Compounds were serially diluted in DMSO at half-log steps to generate a 10-point dose range. Using a Bravo pipette equipped with a 384 well head (Agilent), 0.4 μL of compound was transferred to each well of a 384 well black, clear bottom plate (Greiner Bio-One, Germany) containing 30 μL of cell culture medium. Recovered PBMCs were then dispensed into the assay plate at 50 μL per well (100 k cells/well) using the MicroFlow multichannel dispenser (Biotek). Final DMSO concentration was 0.5%. DMSO was used as the negative control. The plates were incubated for 24 hours at 37° C. PBMCs in the assay plate were pelleted by centrifugation (Beckman Avanti J-E) at 200×g for 5 min.
(§3) Using a Biomek FX 384 well pipetting station (Beckman), conditioned culture medium (CCM) from the assay plate was transferred to MSD capture plates customized for each cytokine. For IFNα and IL12-p40 detection, 25 μL and 20 μL of CCM were added directly to each capture plate, respectively. For TNFα detection, CCM was diluted 1:9 in fresh culture medium, and 20 μL of diluted CCM was used. Serially diluted calibration standards for each cytokine were used to generate standard curves and establish assay linearity. The plates were sealed and incubated overnight at 4° C. in a plate shaker (Titer Plate) set at 200 rpm. On the following day, antibodies specific for each cytokine were diluted 1:50 in MSD Diluent 100 antibody dilution buffer. Diluted antibodies were added to corresponding capture plates at 10 μL/well, and incubated at RT for 1-2 hrs in the shaker. The plates were washed with PBST buffer (3×, 60 μl/well) using a Biotek Multiflow plate washer. MSD Read Buffer diluted to 2× in deionized water and 35 μL/well was added via Biomek FX instrument. The plates were read immediately in a MSD6000 reader. Data were normalized to positive and negative controls in each assay plate. AC50 values represent compound concentrations at half-maximal effect based on normalized percent activation and calculated by non-linear regression using Pipeline Pilot software (Accelrys, San Diego, Calif.).

IL12p40 = assay: Cytokine profiling assay in human PBMCs, IL12-p40 detection (MSD); settings: PBMC; cryopreserved human PBMCs, 24 hours at 37° C.; concentration at half-maximal effect, normalized percent activation
Description: as §1, §2, §3

IFNα = assay: Cytokine profiling assay in human PBMCs, IFNα detection (MSD); settings: PBMC; cryopreserved human PBMCs, 24 hours at 37° C.; concentration at half-maximal effect, normalized percent activation; read-out: IFNa AC50
Description: as §1, §2, §3

Row | Structure (SMILES) | AC50 (TNFα) | AC50 (IL12p40) | AC50 (IFNα)
1 | CCCC[C@H](CNC(C)=O)Nc1nc(N)nc2cc(F)cnc12 [Compound 8, (R)—N-(2-((2-amino-7-fluoropyrido[3,2-d]pyrimidin-4-yl)amino)hexyl)acetamide] | 1880 nM | 1480 nM | > 50000 nM
2 | CCCCCC[C@](C)(CNC(C)=O)Nc1nc(N)nc2cccnc12 [Compound 7] | 4190 nM | 2670 nM | > 50000 nM
3 | CCC[C@](C)(CNC(C)=O)Nc1nc(N)nc2cccnc12 [Compound 6, (R)—N-(2-((2-aminopyrido[3,2-d]pyrimidin-4-yl)amino)-2-methylpentyl)acetamide] | 1460 nM | 1240 nM | > 50000 nM
4 | CCCC[C@](C)(CNC(C)=O)Nc1nc(N)nc2cc(C(C)C)cnc12 [Compound 2, (R)—N-(2-((2-amino-7-isopropylpyrido[3,2-d]pyrimidin-4-yl)amino)-2-methylhexyl)acetamide] | 262 nM | 209 nM | 35000 nM
5 | CCCC[C@](C)(CNC(C)=O)Nc1nc(N)nc2cc(OC)cnc12 [Compound 4, (R)—N-(2-((2-amino-7-methoxypyrido[3,2-d]pyrimidin-4-yl)amino)-2-methylhexyl)acetamide] | 122 nM | 120 nM | > 50000 nM
6 | CCCC[C@](C)(CNC(C)=O)Nc1nc(N)nc2cc(OCC)cnc12 [Compound 5, (R)—N-(2-((2-amino-7-ethoxypyrido[3,2-d]pyrimidin-4-yl)amino)-2-methylhexyl)acetamide] | 81.2 nM | 48.4 nM | > 50000 nM
7 | CCCC[C@](C)(CNC(C)=O)Nc1nc(N)nc2cc(CC)cnc12 [Compound 1, (R)—N-(2-((2-amino-7-ethylpyrido[3,2-d]pyrimidin-4-yl)amino)-2-methylhexyl)acetamide] | 85.3 nM | 60.4 nM | 44600 nM
